Laboratory results published in the supplement of paper PMC10307832.

What was measured:
Test in all cases: relative viability (nuclei count vs DMSO), 5 days (fraction); higher = more cells survive
Afatinib = compound: CN(C)C/C=C/C(=O)Nc1cc2c(Nc3ccc(F)c(Cl)c3)ncnc2cc1O[C@H]1CCOC1 [Afatinib]
Method in brief: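 Lung cancer cell lines in 1536-well plates were exposed by pinning to five library-drug doses (not always all listed) √10 apart, following an overnight hold at 37 °C. MetaXpress counted Hoechst-stained nuclei from 4× images taken after 5 days without medium change. Viability is the median ratio of treated-well to vehicle-well nuclei across plates. Plates required control CV below 25% and at least one doubling.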

Afatinib + Tozasertib = compound: CN(C)C/C=C/C(=O)Nc1cc2c(Nc3ccc(F)c(Cl)c3)ncnc2cc1O[C@H]1CCOC1 [Afatinib] + Cc1cc(Nc2cc(N3CCN(C)CC3)nc(Sc3ccc(NC(=O)C4CC4)cc3)n2)n[nH]1 [Tozasertib] (partner 0.1 µM)
Method in brief: (§1)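 The day after seeding in 1536-well plates, lung cancer cell lines were treated by pin tool with a single drug, or with a fixed anchor-drug dose together with five library-drug doses (not always all listed) in √10 steps. After 5 days, a combined fix-and-stain solution (final 0.05% Triton X-100, 1% formaldehyde, 1 ug/ml Hoechst) was added. Nuclei counted on 4× images gave relative viability as treated counts over vehicle counts, reported as the median of duplicate plates.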

Afatinib + Trametinib = compound: CN(C)C/C=C/C(=O)Nc1cc2c(Nc3ccc(F)c(Cl)c3)ncnc2cc1O[C@H]1CCOC1 [Afatinib] + CC(=O)Nc1cccc(-n2c(=O)n(C3CC3)c(=O)c3c(Nc4ccc(I)cc4F)n(C)c(=O)c(C)c32)c1 [Trametinib] (partner 0.02 µM)
Method in brief: as §1

Afatinib + AZD7762 = compound: CN(C)C/C=C/C(=O)Nc1cc2c(Nc3ccc(F)c(Cl)c3)ncnc2cc1O[C@H]1CCOC1 [Afatinib] + NC(=O)Nc1cc(-c2cccc(F)c2)sc1C(=O)N[C@H]1CCCNC1 [AZD7762] (partner 0.2 µM)
Method in brief: as §1

Row | Cell Line | relative viability (Afatinib; 0.005 µM) | relative viability (Afatinib; 0.01581 µM) | relative viability (Afatinib; 0.05 µM) | relative viability (Afatinib; 0.1581 µM) | relative viability (Afatinib; 0.5 µM) | relative viability (Afatinib + Tozasertib; first compound 0.005 µM) | relative viability (Afatinib + Tozasertib; first compound 0.01581 µM) | relative viability (Afatinib + Tozasertib; first compound 0.05 µM) | relative viability (Afatinib + Tozasertib; first compound 0.1581 µM) | relative viability (Afatinib + Tozasertib; first compound 0.5 µM) | relative viability (Afatinib + Trametinib; first compound 0.005 µM) | relative viability (Afatinib + Trametinib; first compound 0.01581 µM) | relative viability (Afatinib + Trametinib; first compound 0.05 µM) | relative viability (Afatinib + Trametinib; first compound 0.1581 µM) | relative viability (Afatinib + Trametinib; first compound 0.5 µM) | relative viability (Afatinib + AZD7762; first compound 0.005 µM) | relative viability (Afatinib + AZD7762; first compound 0.01581 µM) | relative viability (Afatinib + AZD7762; first compound 0.05 µM) | relative viability (Afatinib + AZD7762; first compound 0.1581 µM) | relative viability (Afatinib + AZD7762; first compound 0.5 µM)
1 | H3255 | 0.418 | 0.237 | 0.244 | 0.244 | 0.26 | 0.315 | 0.204 | 0.222 | 0.168 | 0.195 | 0.297 | 0.208 | 0.288 | 0.195 | 0.237 | 0.405 | 0.284 | 0.278 | 0.259 | 0.287
2 | EPLC-272H | 0.915 | 0.687 | 0.831 | 0.718 | 0.718 | 0.205 | 0.427 | 0.133 | 0.164 | 0.253 | 0.251 | 0.265 |  | 0.229 | 0.27 | 0.139 | 0.229 | 0.175 | 0.187 | 0.168
3 | PC-3 [JPC-3] | 0.553 | 0.406 | 0.443 | 0.439 | 0.469 | 0.443 | 0.416 | 0.428 | 0.291 | 0.37 | 0.441 | 0.4 | 0.443 | 0.285 | 0.438 | 0.52 | 0.413 | 0.307 | 0.353 | 0.422
4 | NCI-H1793 | 0.829 | 0.616 | 0.558 | 0.418 | 0.536 | 0.315 | 0.377 | 0.252 | 0.147 | 0.242 | 0.436 | 0.377 | 0.432 | 0.345 | 0.401 | 0.193 | 0.304 | 0.451 | 0.268 | 0.231
5 | EKVX | 0.779 | 0.718 | 0.51 | 0.292 | 0.334 | 0.379 | 0.423 | 0.31 | 0.132 | 0.169 | 0.255 | 0.246 | 0.216 | 0.16 | 0.162 | 0.638 | 0.368 | 0.373 | 0.315 | 0.865
6 | ChaGo-K-1 | 1.07 | 1 | 0.996 | 0.977 | 0.999 | 0.231 | 0.239 | 0.225 | 0.215 | 0.212 | 0.922 | 0.911 | 0.885 | 0.866 | 0.813 | 0.801 | 0.868 | 0.827 | 0.871 | 0.827
7 | NCI-H23 | 1.1 | 0.976 | 0.922 | 0.97 | 0.792 | 0.356 | 0.366 | 0.321 | 0.391 | 0.315 | 0.358 | 0.323 | 0.359 | 0.331 | 0.345 | 0.17 | 0.226 | 0.237 | 0.23 | 0.195
8 | EMC-BAC-2 | 1.12 | 0.821 | 1.14 | 1.01 | 1.02 | 0.315 | 0.299 | 0.342 | 0.326 | 0.309 | 0.945 | 0.888 | 0.823 | 0.873 | 0.872 | 1.07 | 1.17 | 1.14 | 1.06 | 1.19
9 | LOU-NH91 | 0.784 | 0.813 | 0.887 | 0.73 | 0.791 | 0.475 | 0.444 | 0.527 | 0.51 | 0.479 | 0.718 | 0.683 | 0.718 | 0.671 | 0.727 | 0.707 | 0.704 | 0.76 | 0.679 | 0.637
10 | LU99A | 1.15 | 0.984 | 0.94 | 0.924 | 0.975 | 0.275 | 0.273 | 0.256 | 0.254 | 0.231 | 0.635 | 0.569 | 0.589 | 0.509 | 0.552 | 0.238 | 0.41 | 0.37 | 0.257 | 0.293
11 | NCI-H1395 | 1.07 | 0.744 | 1 | 1.05 | 0.849 | 0.784 | 0.759 | 0.712 | 0.709 | 0.667 | 1.13 | 0.832 | 1.09 | 0.911 | 1.06 | 0.388 | 0.378 | 0.377 | 0.385 | 0.354
12 | NCI-H460 | 1.01 | 1 | 0.996 | 1.01 | 1 | 0.487 | 0.511 | 0.407 | 0.269 | 0.395 | 0.161 | 0.139 | 0.187 | 0.133 | 0.136 | 0.396 | 0.595 | 0.62 | 0.635 | 0.603
13 | 201T | 1.01 | 0.942 | 0.944 | 0.92 | 0.956 | 1.01 | 0.915 | 0.948 | 0.806 | 0.827 | 0.688 | 0.709 | 0.712 | 0.673 | 0.673 | 0.483 | 0.626 | 0.599 | 0.667 | 0.62
14 | NCI-H1944 | 0.916 | 0.906 | 0.794 | 0.575 | 0.73 | 0.234 | 0.247 | 0.216 | 0.195 | 0.208 | 0.431 | 0.373 | 0.358 | 0.259 | 0.298 | 0.297 | 0.496 | 0.413 | 0.343 | 0.404
15 | NCI-H2405 | 1.01 | 0.959 | 1.08 | 0.957 | 1.02 | 0.779 | 0.741 | 0.741 | 0.646 | 0.824 | 0.597 | 0.482 | 0.529 | 0.537 | 0.594 | 0.763 | 0.759 | 0.839 | 0.666 | 0.562
16 | NCI-H1703 | 1.25 | 0.749 | 1.03 | 0.853 | 0.713 |  |  |  |  |  |  |  |  |  |  | 0.13 | 0.141 | 0.119 | 0.121 | 0.109
